Results published in PubChem BioAssay AID504568 (NMMLSC, 2011).
Active and inactive are the calls of the source.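 How the source made its calls: active means binding readouts below 60% of the midpoint between blocked and unblocked controls, with summed weighted score above 1; inactive means the rest.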

Test system: 2C TCR mouse CD8+ T cells, vesicle binding, flow cytometry
Experiment: inhibitors of CD8+ T cell LFA-1/ICAM-1 adhesion – powder samples, single concentration, mouse 2C TCR, flow cytometry, confirmation (AID 504568);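 further: lower values mean less vesicle binding and point to an inhibitor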;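 on double-positive events (T cell-vesicle binding): the gate for binding is set so anti-LFA-1 blocked control wells show 10% double positives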
Conditions: stronger effect = lower value; for mean fluorescence percent response: measured here: CD8+ cell vesicle fluorescence mean

| SMILES | double-positive events (T cell-vesicle binding) | mean fluorescence percent response |
| --- | --- | --- |
| CC(C)(C)NC(=O)COc1ccc(CNCc2cccnc2)cc1 | 25.7% (inactive) | 148% |
| Cn1c(CNC(=O)CNC(=O)c2ccc(F)cc2)cc(=O)n(C)c1=O | 29.7% (inactive) | 165% |
| CC1CCCCC1NC(=O)COC(=O)c1ccc2ncsc2c1 (centres undefined) | 19.9% | 111% |
| Cc1ccc(C(=O)NCCCN2CCOCC2)c(C)c1 | 24.4% | 136% |
| COc1ccc(S(=O)(=O)N2CCCCC2)cc1NC(=O)c1cnc(C)cn1 | 26.7% (inactive) | 173% |
| CN(C)S(=O)(=O)c1cccc(-n2sc3ccccc3c2=O)c1 | 17.7% | 109% |
| COc1ccc(/C=C2\SC(=S)N(CCC(=O)N3CCOCC3)C2=O)cc1 | 22.1% | 102% |
| CN(CC(=O)Nc1cc(S(=O)(=O)N2CCCC2)ccc1Cl)Cc1ccc2c(c1)OCO2 | 20.9% | 123% |
| CCOc1ccc(CCNC(=O)CCS(=O)(=O)c2ccc(C)cc2)cc1OCC | 23.5% | 117% |
| COc1ccc(S(=O)(=O)N2CCCC2C(=O)Nc2ccc(C(C)=O)cc2)cc1 (centres undefined) | 26.1% (inactive) | 142% |
| O=C(NCCC1=CCCCC1)C(=O)NCC(c1ccco1)N1CCN(c2ccccc2F)CC1 (centres undefined) | 26.1% (inactive) | 116% |
| COc1cccc(NC(=O)Nc2ccc3nc(C)c(C)nc3c2)c1 | 18.7% | 113% |
| CC(Sc1nc2ccccc2[nH]1)C(=O)NC1CCCCC1C (centres undefined) | 25.7% (inactive) | 141% |
| CCN(CC)CCNC(=O)CCCNC(=O)Cn1cnc2sc(C)c(C)c2c1=O | 30.9% (inactive) | 196% |
| O=C1CC(c2nc3ccccc3[nH]2)CN1Cc1ccccc1 (centres undefined) | 22.6% | 124% |
| Cc1cc(C)n(C(=O)c2sc3cc(F)ccc3c2Cl)n1 | 24.5% | 90.2% |
| COc1ccc(Nc2ccccc2N)cc1 | 32.7% (inactive) | 138% |
| CCOCC(=O)Nc1ccc(S(=O)(=O)N2CCC(c3nc4ccccc4[nH]3)CC2)cc1 | 16.4% | 97.1% |
| CCOC(=O)N1CCN(C(=O)c2ccc(CS(=O)Cc3ccc(C)cc3)o2)CC1 (centres undefined) | 26.5% (inactive) | 146% |
| O=C(NCC1CCCCC1)c1ccc(Cl)c(S(=O)(=O)N2CCOCC2)c1 | 17.8% | 136% |
| CCOC(=O)c1ccc(NC(=O)CN2C(=O)NC3(CCCCCCC3)C2=O)cc1 | 27.4% | 149% |
| Cc1ccc(OCCOC(=O)c2cc(S(=O)(=O)N3CCCCC3)ccc2N2CCOCC2)cc1 | 20.9% | 134% |
| O=C(NCCN1CCN(c2ccccc2)CC1)c1cccc(Br)c1 | 24.2% (inactive) | 152% |

| SMILES | double-positive events (T cell-vesicle binding) | mean fluorescence percent response |
| --- | --- | --- |
| CCOC(=O)c1c(N2C(=O)CC(Sc3ccccc3C(=O)O)C2=O)sc2c1CCCC2 (centres undefined) | 9.25% | 59.9% |
| COc1ccc(N2CC(C(=O)NC(C)C(=O)NCc3ccccc3OC)CC2=O)cc1 (centres undefined) | 27.3% (inactive) | 177% |
| CCOc1ccc(-c2nc(N)ncc2-c2ccccc2)c(O)c1 | 20.9% | 126% |
| O=C(NNS(=O)(=O)c1ccc2ccccc2c1)c1cccs1 | 23.5% (inactive) | 149% |
| c1ccc(COc2ccc(OCCN3CCCCC3)cc2)cc1 | 20.7% | 133% |
| COCc1c(C(=O)Nc2cccc(S(=O)(=O)N3CCCCC3)c2)oc2ccccc12 | 14.8% | 104% |
| Cc1sc2ncnc(NCC(C)(C)N3CCOCC3)c2c1C | 20.2% | 126% |
| O=C(Cn1cc(C(F)(F)F)cc(Cl)c1=O)NCCc1ccc(Cl)cc1Cl | 26.4% (inactive) | 136% |
| O=C(O)C1CCC(Cn2c(SCc3cc(=O)n4cc(Cl)ccc4n3)nc3ccsc3c2=O)CC1 (centres undefined) | 19.5% | 128% |
| O=C(OCCOc1cccc(Cl)c1)c1ccc(F)c(S(=O)(=O)N2CCOCC2)c1 | 25.8% (inactive) | 163% |
| O=C(CCC(=O)N1CCOCC1)NCc1cccc(C(F)(F)F)c1 | 24.3% (inactive) | 133% |
| CN1CCN(S(=O)(=O)c2cccc(C(=O)Nc3cc(C(F)(F)F)ccc3N3CCCCC3)c2)CC1 | 21.7% | 105% |
| O=C(CC1=NCCNC(c2ccccc2)C1)c1ccccc1O (centres undefined) | 28% (inactive) | 170% |
| COC(=O)c1ccccc1NC(=O)C1CCN(C(=O)c2cc(OC)cc(OC)c2)CC1 | 29.9% (inactive) | 172% |
| CN(C)S(=O)(=O)c1ccc(C(=O)NCCc2ccco2)cc1 | 22.8% | 122% |
| COc1ccc([N+](=O)[O-])cc1NC(=O)c1ccc(N(Cc2ccccc2C)S(C)(=O)=O)cc1 | 23% | 105% |
| O=C(NCc1cccnc1)C(=O)NCC(c1ccco1)N1CCN(c2ccccc2)CC1 (centres undefined) | 26.8% (inactive) | 149% |
| Cc1ccc(Cn2c([N+](=O)[O-])cnc2C)cc1 | 23.1% | 153% |
| CCCNC(=O)c1nc2ncc(Br)cn2n1 | 25.8% (inactive) | 154% |
| Cc1ccccc1C(=O)N1CCC(C(=O)Nc2ccc(C)c(S(=O)(=O)N3CCCCC3)c2)CC1 | 22.7% | 130% |
| CCC(C(=O)Nc1ccccc1)c1ccccc1 (centres undefined) | 24.6% | 131% |
| CCCc1nnc(NC(=O)c2ccc(S(=O)(=O)N(C)c3ccccc3OC)cc2)s1 | 26.1% (inactive) | 131% |
| CCOC(=O)C1CCCN(S(=O)(=O)c2ccc(F)c(C(=O)Nc3ccc(F)c(F)c3)c2)C1 (centres undefined) | 22.4% | 162% |

| SMILES | double-positive events (T cell-vesicle binding) | mean fluorescence percent response |
| --- | --- | --- |
| COc1ccc(C2=Nc3cc(C)ccc3OC2)cc1 | 26.7% (inactive) | 140% |
| CC(=O)Nc1ccc(S(=O)(=O)NC2CCSc3ccccc32)cc1 (centres undefined) | 23.2% (inactive) | 120% |
| CC(=O)c1ccc(-c2csc(N3CCC(C(N)=O)CC3)n2)cc1 | 26.5% (inactive) | 153% |
| O=C(c1ccc(N2C(=O)C3CC=C(Cl)CC3C2=O)cc1)N1CCCCC1 (centres undefined) | 22.8% (inactive) | 130% |
| COc1ccccc1NS(=O)(=O)c1cc(NC(=O)CNC(=O)c2cc(C)cc(C)c2)ccc1C | 27.3% (inactive) | 153% |
| CCCCOc1ccc(C(=O)NCC(=O)N2CCN(C(=O)c3ccco3)CC2)cc1 | 25.2% | 133% |
| Cc1cccc(NC(=O)C2CCN(S(=O)(=O)c3c(C)[nH]c(=O)[nH]c3=O)CC2)c1 | 27.4% (inactive) | 161% |
| COc1ccc(NC(=O)CSCC(=O)Nc2cccc(S(=O)(=O)N3CCCCCC3)c2)cc1 | 21.7% | 136% |
| Cc1cc(=O)oc2c3c(cc(OCC(=O)NCc4ccncc4)c12)OC(C)(C)CC3 | 20.8% | 128% |
| Cc1ccc(N2CC(C(=O)NC3=NCCS3)CC2=O)cc1 (centres undefined) | 21.9% (inactive) | 161% |
| Cc1ccc(S(=O)(=O)N2CCN(S(=O)(=O)N(C)C)CC2)c(C)c1 | 24.7% | 139% |
| Cc1ccccc1C(=O)NCC(=O)N1CCN(C/C=C/c2ccccc2)CC1 | 21.8% | 150% |
| CCOC(=O)c1c(C=O)c2ccccc2n1CC | 20.5% | 148% |
| CCN(CC)C(=O)N1CCN(S(=O)(=O)c2ccc(C)cc2)CC1 | 26% (inactive) | 129% |
| COCCCN1CCc2[nH]c(=S)[nH]c(=O)c2C1 | 28% (inactive) | 169% |
| CCOC(=O)c1ccc(S(=O)(=O)N2CCN(C3CCCC3)CC2)cc1 | 23% (inactive) | 155% |
| Cc1ccc(O)c(CCc2ccccc2)n1 | 22.9% | 120% |
| O=C(CS(=O)(=O)Cc1ccccc1)N1CCc2ccccc21 | 25.6% (inactive) | 159% |
| Cc1ccc(S(=O)(=O)N2CCN(C(=O)CNC(=O)c3ccc(Cl)cc3)CC2)cc1 | 29.6% (inactive) | 165% |
| Cc1ncc([N+](=O)[O-])n1Cc1cccc(F)c1 | 28.5% (inactive) | 152% |
| COc1ccc(NC(=O)CC2C(=O)N(Cc3ccccc3)C(=S)N2CCN2CCOCC2)cc1 (centres undefined) | 28.8% (inactive) | 149% |
